The values below come from patent US9845330B2, “6-nitro-2,3-dihydroimidazo[2,1-b]oxazoles and a process for the preparation thereof” (priority 2013, dated 2017).

The structures appear in SMILES notation. Values after ≈ are worked out from the molar mass of the structure shown. Read-outs that look alike come from different tables or passages of the source. Bounds are passed on as bounds.

Common to all, as to format: cell-based
Data set [1] relates to M. tuberculosis H37Rv (ATCC 27294). In words: MIC by broth dilution method, M. tuberculosis H37Rv. The settings on record: Mycobacterium tuberculosis. For orientation: Broth dilution looks for growth in wells or tubes with falling amounts of substance.
Data set [2] in a line: Cytotoxicity assay (MTT) in macrophage J774 cells. The conditions noted are these: mouse, J774 macrophage cells; also called safety index. Summed up:
(§1)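 J774 cells seeded at 3×10^4 cells/cm^2 in RPMI with FCS reduced to 5%, then exposed to compounds at 40 μg/ml for 24 hrs. MTT reduction read at 450 nm; percentage cytotoxicity calculated relative to untreated cells.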

Data set [3] relates to macrophage J774 cells line. Description: Cytotoxicity assay (MTT) in macrophage J774 cells. The settings on record: J774 cells, 24 hrs, MTT. The method, boiled down:
as §1

[4] abbreviates: 504 h, broth dilution, 3 weeks, read-out: MIC M. tb H37Rv.
The mark [5] stands for this setting: read-out: MIC value, text summary: sensitive H37Rv as well as MDR and XDR strains of M. tuberculosis.

By MIC is commonly meant the lowest concentration that inhibits growth of the organism. Regarding `C[C@]1(COc2ccc(-n3cc(-c4ccccc4C(F)(F)F)nn3)cc2)Cn2cc([N+](=O)[O-])nc2O1` [IA6, (R)-2-{4-[4-(2-trifluoromethylphenyl)-1H-1,2,3-triazol-1-yl]phenoxymethyl}-2,3-dihydro-2-methyl-6-nitroimidazo[2,1-b]oxazole], in data set [1] (setting [4]), the MIC turned out to be 1 µg/mL (≈ 2.06 µM). Further, the selectivity ratio at 24 h, 40 μg/ml in data set [2] is above 10. This compound displayed a Cytotoxicity in data set [3] above 40 µg/mL.
Consider `C[C@]1(COc2ccc(-c3cc(-c4ccccc4F)on3)cc2)Cn2cc([N+](=O)[O-])nc2O1` [IC4, (R)-2-{4-[5-(2-fluorophenyl)isoxazol-3-yl]phenoxymethyl}-2,3-dihydro-2-methyl-6-nitroimidazo[2,1-b]oxazole], for which, in data set [1] (setting [4]), the MIC is 2 µg/mL (≈ 4.58 µM). In data set [2], the selectivity ratio at 24 h, 40 μg/ml is above 10. The compound further had a Cytotoxicity in data set [3] above 40 µg/mL.
For the compound `CC(C)c1ccc(OCc2cn(-c3ccc(OC[C@@]4(C)Cn5cc([N+](=O)[O-])nc5O4)cc3)nn2)cc1` [IA30], the MIC in data set [1] (setting [4]) amounted to 32 µg/mL (≈ 65.2 µM). Besides, in data set [2], the selectivity ratio at 24 h, 40 μg/ml was above 10. The compound also showed a Cytotoxicity in data set [3] above 40 µg/mL.
On to `Cc1ccc(OCc2cn(-c3ccc(OC[C@@]4(C)Cn5cc([N+](=O)[O-])nc5O4)cc3)nn2)cc1` [IA29], for which the MIC in data set [1] (setting [4]) worked out at 32 µg/mL (≈ 69.2 µM). The selectivity ratio at 24 h, 40 μg/ml in data set [2] was above 10. For the same compound, the Cytotoxicity in data set [3] is above 40 µg/mL.
Take `C[C@]1(COc2ccc(S(=O)(=O)N3CCOCC3)cc2)Cn2cc([N+](=O)[O-])nc2O1` [IIC10, (R)-2-{4-(morpholinsulfonyl)phenoxymethyl}-2,3-dihydro-2-methyl-6-nitroimidazo[2,1-b]oxazole]: the MIC in data set [1] (setting [4]) and in data set [1] (setting [5]) was 0.5 µg/mL (≈ 1.18 µM) in each case. In addition, in data set [2], the selectivity ratio at 24 h, 40 μg/ml was above 10. The Cytotoxicity in data set [3] was above 40 µg/mL.
As for `C[C@]1(COc2ccc(-n3cc(COc4ccc(F)cc4)nn3)cc2)Cn2cc([N+](=O)[O-])nc2O1` [IA26], the MIC in data set [1] (setting [4]) was 0.5 µg/mL (≈ 1.07 µM); in data set [1] (setting [5]), below 1 µg/mL. In data set [2], the selectivity ratio at 24 h, 40 μg/ml is above 10. In data set [3], the Cytotoxicity was above 40 µg/mL.
As for `C[C@]1(COc2ccccc2-n2cc(-c3ccc(F)cc3F)nn2)Cn2cc([N+](=O)[O-])nc2O1` [IA24, (R)-2-{2-[4-(2,4-difluorophenyl)-1H-1,2,3-triazol-1-yl]phenoxymethyl}-2,3-dihydro-2-methyl-6-nitroimidazo[2,1-b]oxazole], the minimal inhibitory concentration (MIC) in data set [1] (setting [4]) came out at 1 µg/mL (≈ 2.2 µM). In data set [2], the selectivity ratio at 24 h, 40 μg/ml was above 10. In data set [3], this compound yielded a Cytotoxicity above 40 µg/mL.
Turning to `C[C@]1(COc2ccc(-c3cc(COc4ccc(C(F)(F)F)cc4)on3)cc2)Cn2cc([N+](=O)[O-])nc2O1` [IC15, (R)-2-{4-[5-(4-trifluoromethylphenoxymethyl)isoxazol-3-yl]phenoxymethyl}-2,3-dihydro-2-methyl-6-nitroimidazo[2,1-b]oxazole], the figures for the MIC in data set [1] (setting [4]) and in data set [1] (setting [5]) were 0.25 µg/mL (≈ 0.484 µM) and below 1 µg/mL, respectively. The selectivity ratio at 24 h, 40 μg/ml in data set [2] is above 10. The compound also came in with a Cytotoxicity in data set [3] above 40 µg/mL.
For the compound `C[C@]1(COc2ccc(S(=O)(=O)N3CCCCC3)cc2)Cn2cc([N+](=O)[O-])nc2O1` [IIC7, (R)-2-{4-(piperidin-1-ylsulfonyl)phenoxymethyl}-2,3-dihydro-2-methyl-6-nitroimidazo[2,1-b]oxazole], the minimal inhibitory concentration (MIC) in data set [1] (setting [4]) stood at 1 µg/mL (≈ 2.37 µM). Further, the selectivity ratio at 24 h, 40 μg/ml in data set [2] is above 10. Besides, the Cytotoxicity in data set [3] was above 40 µg/mL.
Consider `C[C@]1(COc2ccc(-n3cc(-c4ccccn4)nn3)cc2)Cn2cc([N+](=O)[O-])nc2O1` [IA14], for which, in data set [1] (setting [4]), the MIC was 2 µg/mL (≈ 4.77 µM). Besides, the selectivity ratio at 24 h, 40 μg/ml in data set [2] is above 10. The same compound registered a Cytotoxicity in data set [3] above 40 µg/mL.
Turning to `C[C@]1(COc2ccc(-c3cc(COc4ccc(F)cc4F)on3)cc2)Cn2cc([N+](=O)[O-])nc2O1` [IC22, (R)-2-{4-[5-(2,4-difluorophenoxymethyl)isoxazol-3-yl]phenoxymethyl}-2,3-dihydro-2-methyl-6-nitroimidazo[2,1-b]oxazole], the MIC in data set [1] (setting [4]) is 0.12 µg/mL (≈ 0.248 µM); in data set [1] (setting [5]), below 1 µg/mL. In addition, the selectivity ratio at 24 h, 40 μg/ml in data set [2] was above 10. For the same compound, the Cytotoxicity in data set [3] was above 40 µg/mL.
In the case of `C[C@]1(COc2ccc(-n3cc(-c4ccccc4)nn3)cc2)Cn2cc([N+](=O)[O-])nc2O1` [IA1], the MIC in data set [1] (setting [4]) came to 4 µg/mL (≈ 9.56 µM). For the same compound, the selectivity ratio at 24 h, 40 μg/ml in data set [2] is above 10. Moreover, in data set [3], the Cytotoxicity is above 40 µg/mL.
With `C[C@]1(COc2ccc(NC(=O)Nc3ccc(OC(F)(F)F)cc3)cc2)Cn2cc([N+](=O)[O-])nc2O1` [IIA6, (R)-1-(4-trifluoromethoxyphenyl)-3-{4-(2-methyl-6-nitro-2,3-dihydroimidazo[2,1-b]oxazol-2-yl)methoxyphenyl}urea], the minimum inhibitory concentration (MIC) in data set [1] (setting [4]) was 0.5 µg/mL (≈ 1.01 µM); in data set [1] (setting [5]) it was below 1 µg/mL. Moreover, in data set [2], the selectivity ratio at 24 h, 40 μg/ml was above 10. Besides, the Cytotoxicity in data set [3] was above 40 µg/mL.
As for `CCOC(=O)N1CCN(S(=O)(=O)c2ccc(OC[C@@]3(C)Cn4cc([N+](=O)[O-])nc4O3)cc2)CC1` [IIC5, (R)-ethyl-{4-[4-(2-methyl-6-nitro-2,3-dihydroimidazo[2,1-b]oxazol-2yl)methoxyphenyl]sulfonyl}piperazine-1-carboxylate], in data set [1] (setting [4]), the MIC was 2 µg/mL (≈ 4.04 µM). In addition, the selectivity ratio at 24 h, 40 μg/ml in data set [2] is above 10. The same compound returned a Cytotoxicity in data set [3] above 40 µg/mL.
As for `C[C@]1(COc2ccc(-c3cc(-c4ccc(F)cc4F)on3)cc2)Cn2cc([N+](=O)[O-])nc2O1` [IC3, (R)-2-{4-[5-(2,4-difluorophenyl)isoxazol-3-yl]phenoxymethyl}-2,3-dihydro-2-methyl-6-nitroimidazo[2,1-b]oxazole], the MIC is 0.25 µg/mL (≈ 0.55 µM) in data set [1] (setting [4]) and below 1 µg/mL in data set [1] (setting [5]). Also, the selectivity ratio at 24 h, 40 μg/ml in data set [2] is above 10. In data set [3], the Cytotoxicity is above 40 µg/mL.
For `Cc1ccc(NC(=O)Nc2ccc(OC[C@@]3(C)Cn4cc([N+](=O)[O-])nc4O3)cc2)cc1` [IIA4, (R)-1-(4-methylphenyl)-3-{4-(2-methyl-6-nitro-2,3-dihydroimidazo[2,1-b]oxazol-2-yl)methoxyphenyl}urea], the MIC in data set [1] (setting [4]) was 0.06 µg/mL (≈ 0.142 µM); in data set [1] (setting [5]), below 1 µg/mL. For the same compound, the selectivity ratio at 24 h, 40 μg/ml in data set [2] was above 10. The compound further yielded a Cytotoxicity in data set [3] above 40 µg/mL.
As to `CCCCCc1cc(-c2ccc(OC[C@@]3(C)Cn4cc([N+](=O)[O-])nc4O3)cc2)no1` [IC11, (R)-2-{4-[5-pentylisoxazol-3-yl]phenoxymethyl}-2,3-dihydro-2-methyl-6-nitroimidazo[2,1-b]oxazole], the MIC in data set [1] (setting [4]) amounted to 32 µg/mL (≈ 77.6 µM). Also, the selectivity ratio at 24 h, 40 μg/ml in data set [2] is above 10. Also, the Cytotoxicity in data set [3] was above 40 µg/mL.
`C[C@]1(COc2cccc(-n3cc(COc4ccc(F)cc4)nn3)c2)Cn2cc([N+](=O)[O-])nc2O1` [IA34]: the figures for the minimum inhibitory concentration (MIC) in data set [1] (setting [4]) and in data set [1] (setting [5]) were 0.12 µg/mL (≈ 0.257 µM) and below 1 µg/mL, respectively. Further, the selectivity ratio at 24 h, 40 μg/ml in data set [2] is above 10. For the same compound, the Cytotoxicity in data set [3] is above 40 µg/mL.
